Results on one compound are retold here after patent US20250129054A1 (Terran Biosciences Inc., priority 2022, published 2025).

Structures are written as SMILES.

Data set [1] can be described thus: Terminal plasma and brain concentration at the end of the zero maze study. Conditions: 5, 15 and 30 mg/kg ip, male SD rats. The class given is in vivo, Sprague-Dawley rats. As for the experimental part:
Terminal sampling. At the end of the study, terminal blood was collected from 2 of the vehicle treated rats (>5 mL) and from all methylone HCl treated rats (500 uL) by CP under CO2. Blood samples were placed into Eppendorf tubes on ice containing 22 μL/mL blood (vehicle treated) or 11 μL EDTA (93 mg/mL) (Methylone HCl treated rats) and gently mixed. After no longer than 30 min, blood samples were centrifuged at 10,000 rpm×3 min and plasma samples (>2 mL (vehicle) or 2×100 μL (Methylone HCl treated) placed into Eppendorf tubes (Vehicle) or 96 well plates on dry ice. Immediately after blood sampling, brains were excised, rinsed in saline, blotted, weighed and snap-frozen in liquid N2. All samples were stored at −20
Terminal sampling. At the end of the study, terminal blood was collected from 2 of the vehicle treated rats (>5 mL) and from all S-methylone HCl treated rats (500 uL) by CP under CO2. Blood samples were placed into Eppendorf tubes on ice containing 22 μL/mL blood (vehicle treated) or 11 μL EDTA (93 mg/mL) (S-methylone HCl treated rats) and gently mixed. […]

Data set [2] has as its system post-traumatic stress disorder (PTSD). The data set is described as follows: Double-blind, randomized, placebo-controlled clinical trial of methylone-assisted psychotherapy in PTSD. In kind it is in vivo, human. The following applies: at Study Conclusion. As for the experimental part: A multicenter, randomized, double-blind, placebo-controlled trial is conducted to assess the efficacy and safety of methylone-assisted psychotherapy versus psychotherapy with placebo control in participants diagnosed with at least moderate post-traumatic stress disorder (PTSD).
This multicenter, randomized, double-blind, placebo-controlled trial is conducted at various sites in the United States with IRB approval from each study site. A flexible dose of methylone hydrochloride salt or placebo, followed by a supplemental half-dose unless contraindicated by patient's previous response or medical history, is also administered during the Treatment Period with psychotherapy in at least 3 blinded monthly Experimental Sessions. The Supplemental Dose extends the duration of drug effects on the participants during an Experimental Session. Methylone test groups are further subdivided into specific groups receiving only racemic methylone hydrochloride salt, S-methylone hydrochloride salt, or R-methylone hydrochloride salt. An optional Risk Evaluation and Mitigation Strategy (REMS) Protocol may be implemented for the racemic methylone, S-methylone, and placebo-groups. The Treatment Period lasts for approximately 12 weeks. During the Treatment Period, each Experimental Session is followed by three Intervening Sessions of non-drug psychotherapy. Each Experimental Session involves an overnight stay. The Primary Outcome measure, the change in Clinician Administered PTSD Scale for DSM-5 (CAPS-5), is determined by a blinded Independent Rater (IR) pool multiple times throughout the study. The study consists of separate periods for each participant. Initially, prospective participants undergo a Screening Period involving an initial eligibility assessment, a medical history intake, informed consent, and enrollment of eligible participants. Next, a Preparation Period is undertaken for enrolled participants involving medication tapering and clinical baseline assessments to confirm each participant meets enrollment criteria. As part of the Preparation Period, a detailed assessment of co-morbidities to PTSD is recorded. Participants may remain on prescribed courses of selective serotonin reuptake inhibitor (SSRI) or serotonin and norepinephrine reuptake inhibitor (SNRI) treatment. Dosages and/or frequency of administration of a prescribed SSRI or SNRI may be adjusted to fit within study parameters. Participants may be required to taper a prescribed course of medication in order to maintain eligibility within the study. The Treatment Period consists of three monthly Experimental Sessions and associated Intervening Sessions of integrative behavioral psychotherapy. The Treatment Period lasts approximately 12 weeks. Following the Treatment Period is a Follow-up Period and Study Conclusion. During the Follow-up Period and Study Conclusion, participants complete 4 weeks with no study visits, followed by a Study Conclusion visit.
This study compares the effects of three blinded Experimental Sessions of psychotherapy in combination with flexible doses of methylone or placebo administered as described below. Non-drug preparatory and intervening psychotherapy sessions are also included. Patient's weight is determined for dosage calculation. Initial dose is 100 mg unless this will result in a dosage of less than 1.5 mg/kg of patient weight. Initial dose thereby adjusted upward in 25 mg increments to deliver the lowest dose possible of at least 1.5 mg/kg of patient weight. Initial dose for Experimental Session 2 and 3 is cumulative dose calculated by adding the initial dose plus REMS protocol dose used the previous Experimental Session for each patient.
Randomization occurs prior to the initiation of Experimental Session 1. Each participant is provided the next randomized number in a sequence by a blinded study monitor. […]

The mark [3] stands for this setting: compared to placebo-treated controls.

As to `CNC(C)C(=O)c1ccc2c(c1)OCO2` (racemic) [racemic methylone], the “concentration in plasma and brain at the end of the zero maze study” value in data set [1] was “increased in both brain and plasma at the higher doses”. In addition, in data set [2], the “daytime sleepiness as measured by ESS” value is “significant improvement in lessening daytime sleepiness”. Moreover, in data set [2] (setting [3]), the “clinician-rated functional impairment score as measured by SDS” value is reported as “significant improvement” and the “depression as measured by HAM-D” value is “significant improvement”. In addition, the “change in CAPS-5 assessment” value in data set [2] (with psychotherapy, compared to the placebo group, PTSD participants) is “significant mean reduction”.
